Series [1] is described as follows: Photophysical property of the compound assessed as fluorescence quantum yield by UV-vis spectrophotometric analysis. The class given is physicochemical.
Series [2] in a line: Photophysical property of the compound assessed as singlet oxygen quantum yield by UV-vis spectrophotometric analysis. In kind it is physicochemical.
Series [3] can be described thus: Induction of singlet oxygen quantum yield under 418 nm light irradiation by DPBF based assay. The class given is functional.
The subject of series [4] is Staphylococcus aureus. Put plainly: Antibacterial activity against Staphylococcus aureus assessed as bacterial growth inhibition preincubated with compound for 15 mins followed by light irradiated with 730 nm, 40 J/cm2 and measured after 24 hrs by broth microdilution method. The class given is functional. The conditions noted are these: light or radiation study, 24.25 h, time 1455 min. On the technique in general: In broth dilution the organism is exposed to a series of concentrations in liquid medium.

Series [5] has as its system Staphylococcus aureus. Put plainly: Antibacterial activity against Staphylococcus aureus assessed as bacterial growth inhibition measured after 24 hrs by broth microdilution method. The class given is functional.
Series [6] deals with Escherichia coli. As to the kind of experiment: Antibacterial activity against Escherichia coli assessed as bacterial growth inhibition measured after 24 hrs by broth microdilution method. The class given is functional.
The subject of series [7] is Escherichia coli. As to the kind of experiment: Antibacterial activity against Escherichia coli assessed as bacterial growth inhibition preincubated with compound for 15 mins followed by light irradiated with 730 nm, 40 J/cm2 and measured after 24 hrs by broth microdilution method. In kind it is functional. As to conditions: light or radiation study, 24.25 h, time 1455 min.

For series [8], the system named is Candida albicans. Put plainly: Antifungal activity against Candida albicans assessed as fungal growth inhibition measured after 24 hrs by broth microdilution method. In kind it is functional.
Series [9] deals with Candida albicans. As to the kind of experiment: Antifungal activity against Candida albicans assessed as fungal growth inhibition preincubated with compound for 15 mins followed by light irradiated with 730 nm, 40 J/cm2 and measured after 24 hrs by broth microdilution method. The class given is functional. As to conditions: light or radiation study, 24.25 h, time 1455 min.
Series [10] deals with Staphylococcus aureus. Put plainly: Antibacterial activity against Staphylococcus aureus preincubated with compound for 15 mins followed by light irradiation with 730 nm, 40 J/cm2 by cell counting analysis. As to conditions: dose 0.5-8 µM. In kind it is functional, organism-based.
Series [11] concerns Staphylococcus aureus. As to the kind of experiment: Antibacterial activity against Staphylococcus aureus assessed as reduction in viable bacteria at 0.5 uM preincubated with compound for 15 mins followed by light irradiation with 730 nm, 40 J/cm2 by cell counting analysis relative to control. The conditions noted are these: 0.25 h. In kind it is functional.
Series [12] deals with Staphylococcus aureus. Put plainly: Antibacterial activity against Staphylococcus aureus assessed as log reduction in bacterial viability at 8 uM preincubated with compound for 15 mins followed by light irradiation with 730 nm, 40 J/cm2 by cell counting analysis relative to control. The class given is functional. The conditions noted are these: 0.25 h.
The subject of series [13] is Staphylococcus aureus. Put plainly: Antibacterial activity against Staphylococcus aureus assessed as eradication rate at 8 uM preincubated with compound for 15 mins followed by light irradiation with 730 nm, 40 J/cm2 relative to control. In kind it is functional. The conditions noted are these: 0.25 h.
For series [14], the system named is Staphylococcus aureus. As to the kind of experiment: Bactericidal activity against Staphylococcus aureus at 0.5 to 8 uM. In kind it is functional, organism-based. The conditions noted are these: dose 0.5-8 µM.
Series [15] relates to Staphylococcus aureus. Put plainly: Antibiofilm activity against Staphylococcus aureus assessed as disruption of mature biofilm structure at 16 uM preincubated for 15 mins followed by light irradiation with 730 nm, 40 J/cm2 by crystal violet staining based analysis. In kind it is functional, organism-based.
Series [16] relates to Staphylococcus aureus. As to the kind of experiment: Antibiofilm activity against Staphylococcus aureus assessed as disruption of mature biofilm rate at 16 uM preincubated for 15 mins followed by light irradiation with 730 nm, 40 J/cm2 by crystal violet staining based analysis relative to control. The class given is functional. As to conditions: 0.25 h.
Series [17] deals with Staphylococcus aureus. Put plainly: Antibiofilm activity against Staphylococcus aureus assessed as reduction in green fluorescence intensity at 16 uM preincubated for 15 mins followed by light irradiation with 730 nm, 40 J/cm2 by SYTO 9/PI staining based CLSM analysis. In kind it is functional, organism-based.
The test system of series [18] is Staphylococcus aureus. As to the kind of experiment: Antibiofilm activity against Staphylococcus aureus assessed as increase in red fluorescence intensity at 16 uM preincubated for 15 mins followed by light irradiation with 730 nm, 40 J/cm2 by SYTO 9/PI staining based CLSM analysis. In kind it is functional, organism-based.
Series [19] concerns Staphylococcus aureus. As to the kind of experiment: Antibiofilm activity against Staphylococcus aureus at 16 uM preincubated for 15 mins followed by light irradiation with 730 nm, 40 J/cm2 by SYTO 9/PI staining based CLSM analysis. The class given is functional, organism-based.
For series [20], the system named is Staphylococcus aureus. Put plainly: Antibiofilm activity against Staphylococcus aureus assessed as viable bacteria at 16 uM preincubated for 15 mins followed by light irradiation with 730 nm, 40 J/cm2 by SYTO 9/PI staining based CLSM analysis. The class given is functional, organism-based.
The nature of series [21]: Dark cytotoxicity against human HaCaT cells assessed as cell viability at 16 uM preincubated for 15 mins by MTT assay. In kind it is toxicity, cell-based. The conditions noted are these: read-out: Activity.
Series [22] concerns HaCaT. As to the kind of experiment: Phototoxicity in human HaCaT cells assessed as cell viability at 16 uM preincubated for 15 mins by MTT assay. In kind it is functional, cell-based. For orientation: Formazan colour is commonly taken as a measure of viable cells.
Series [23] relates to HaCaT. Put plainly: Phototoxicity in human HaCaT cells assessed as cell viability at 16 uM preincubated for 15 mins followed by light irradiation with 730 nm, 40 J/cm2 by MTT assay. In kind it is functional, cell-based.

SMILES strings stand for the structures. Calls of active or inactive are those of the source.

The values that follow come from ChEMBL document CHEMBL6182869, “Tetracationic tetraaryltetranaphtho[2,3]porphyrins for photodynamic inactivation against Staphylococcus aureus biofilm” (Eur J Med Chem, 2025).

As for `CC[N+](C)(CC)CCCOc1ccc(-c2c3nc(c(-c4ccc(OCCC[N+](C)(CC)CC)cc4)c4[nH]c(c(-c5ccc(OCCC[N+](C)(CC)CC)cc5)c5nc(c(-c6ccc(OCCC[N+](C)(CC)CC)cc6)c6[nH]c2c2cc7ccccc7cc62)-c2cc6ccccc6cc2-5)c2cc5ccccc5cc42)-c2cc4ccccc4cc2-3)cc1.[Br-].[Br-].[Br-].[Br-]`, the Activity was 0.06 in series [1]; 0.51 in series [2]; “Dose-dependent-effect” in the series on Staphylococcus aureus [10]; above 75% in the series on Staphylococcus aureus [11]; above 99.9% with Staphylococcus aureus [13]; 80.1% with Staphylococcus aureus [16]. The result (in [3]; in the series with Staphylococcus aureus [14]; in the series on Staphylococcus aureus [15]; in the series on Staphylococcus aureus [17]; in the series on Staphylococcus aureus [18]; with Staphylococcus aureus [19]) was Active. In addition, in the series with Staphylococcus aureus [20], the result was Active. Further, the MIC in the series on Staphylococcus aureus [4] is 8 µM; in the series with Staphylococcus aureus [5], 16 µM; with Escherichia coli [6] it was above 64 µM; with Escherichia coli [7], above 64 µM; in the series with Candida albicans [8], 64 µM; in the series on Candida albicans [9], 64 µM. Also, the “log(activity)” value with Staphylococcus aureus [12] is 3. For the same compound, the viability at 0.25 h, 16 µM in series [21] was above 80%. Further, the outcome in the series with HaCaT [22] and with HaCaT [23] was inactive.
Regarding `C[N+](C)(C)CCCOc1ccc(-c2c3nc(c(-c4ccc(OCCC[N+](C)(C)C)cc4)c4[nH]c(c(-c5ccc(OCCC[N+](C)(C)C)cc5)c5nc(c(-c6ccc(OCCC[N+](C)(C)C)cc6)c6[nH]c2c2cc7ccccc7cc62)-c2cc6ccccc6cc2-5)c2cc5ccccc5cc42)-c2cc4ccccc4cc2-3)cc1.[Br-].[Br-].[Br-].[Br-]`, the Activity in series [1] is 0.07; in series [2] it was 0.37; with Staphylococcus aureus [10], “Dose-dependent-effect”; with Staphylococcus aureus [11], above 75%; in the series with Staphylococcus aureus [13] it was above 99.9%; in the series on Staphylococcus aureus [16] it was 72.6%. The outcome (in series [3]; in the series on Staphylococcus aureus [14]; in the series with Staphylococcus aureus [15]; with Staphylococcus aureus [17]; with Staphylococcus aureus [18]) was Active. Besides, the minimal inhibitory concentration (MIC) in the series with Staphylococcus aureus [4] was 8 µM; with Staphylococcus aureus [5] it was 32 µM; with Escherichia coli [6] it was above 64 µM; in the series with Escherichia coli [7], above 64 µM; in the series with Candida albicans [8], 64 µM; in the series with Candida albicans [9] it was 64 µM. Further, the “log(activity)” value in the series with Staphylococcus aureus [12] stood at 3. Also, in series [21], the viability at 0.25 h, 16 µM was above 80%. In addition, the outcome in the series on HaCaT [22] and in the series with HaCaT [23] was inactive.

For orientation: MIC means the smallest concentration in the dilution series that meets the test's criterion for growth inhibition.
